These results are taken from patent US20080096770A1, “Evaluation of the Toxicity of Pharmaceutical Agents” (priority 2004, published 2008).

Common to all, as to format: cell-based
Series [1] relates to TK6 human lymphoblastoid cells. The settings on record: for Cell Density (±S.D.): 24 h treatment at the optimized cytotoxic concentration (Table 1), aim 40-60% viability decrease; for EC50: 24 h dilution series, determined by cell density and the Alamar Blue assay, read-out: approximated EC50 (cytotoxic concentration for 50% cell death; equicytotoxic concentration). Here is the method: (§1) The human lymphoblastoid cell line TK6 (ATCC, Manassas, Va.) was cultured in RPMI 1640 medium (with Glutamax and 10% FHS) at a cell density of 0.2×10^5 to 10×10^5 cells/ml. Cells were routinely subcultured starting from frozen aliquots after […]. For experiments, passage numbers between 3 to 15 were used.
(§2) Cytotoxic concentrations were determined either by measuring cell density on a Sysmex Cell Counter (Sysmex America, Inc., Mundelein, Ill.) or by metabolic cell activity using the Alamar Blue (Serotec Inc., Raleigh, N.C.) cytotoxicity assay. Alamar Blue indicator dye quantitatively measures proliferation in human and other cells. Alamar Blue is a sensitive fluorimetric and calorimetric reagent sensitive to the redox state of the growth medium. Cell density by Sysmex was measured after the 24 h treatment. Cytotoxicity by Alamar Blue was measured 3 hours prior to end of treatment, i.e., at 21 hours. 200 III of cell suspension were mixed with 20 μl of Alamar Blue reagent in a 96-well plate and measured once/hour using a fluorescence plate reader with 544 nm excitation and 612 nm emission filters. Cell suspension samples from the cytotoxicity dilution series were analyzed for cytometry endpoints by Laser Scanning Cytometry.
(§3) TK6 human lymphoblastoid cells were exposed to following treatments (24 hours, 0.15×10^6 cells/ml):
Dose-response determination to provide the doses given in column 4 of Table 1 was carried out with an initial cell density of 0.15×10^6 cells/ml (see Example 1).
(§4) The six model compounds identified in Table 1 were applied in a dilution series to TK6 cells. The resulting dilution series for each of the six compounds provided individually optimized cytotoxic concentrations for 50% cell death (EC50) as determined by cell density and the Alamar Blue assay. It is possible that cell density and the Alamar Blue assay may not give identical cytotoxicity profiles. Thus, concentrations of the compounds were optimized with the objective to have both cytotoxicity parameters within the range of 40-60% viability decrease. In addition, for representative dilution series several cytometry endpoints were analyzed (BrdU incorporation, KI-67 staining (Histogenex, Edegem, Belgium), propidium iodide staining), although these parameters were not used for concentration selection.

For series [2], the system named is TK6 human lymphoblastoid cells. The experiment in a line: Alamar Blue cytotoxicity assay (metabolic cell activity). The settings on record: measured at 21 hours, at the optimized cytotoxic concentration (Table 1), aim 40-60% viability decrease. As for the experimental part:
as §1, §2, §3, §4

For series [3], the system named is TK6 human lymphoblastoid cells. The experiment in a line: Microarray gene expression profiling with PLS-DA / KNN discrimination of cytotoxic versus genotoxic compounds (Examples 1-7). The settings on record: 24 h.
Description: Total RNA was isolated after 24 hours of treatment with the agents or control using Qiagen's (Hilden, Germany) RNeasy Mini Kits. Samples were made up of 10 ml TK6 cell suspensions with an approximate cell density of 0.3×10^6 cells/ml. Column-purified RNA was eluted with 40 μl water and quality-checked by UV spectrometry and Agilent's “lab-on-a-chip” technology (RNA nano chip, Bioanalyzer 2100, Agilent Technologies, Santa Clara, Calif.). RNA extraction and purification is described by the manufacturer of the GeneChip system.
Purified total human TK6 RNA was analyzed using the human specific Human Genome U133, 2.0 array (Affymetrix). […] Sequences used in the design of the array were selected from GenBank®, dbEST, and RefSeq.
The resulting primary raw data, the image files (.dat files), were processed using the Microarray Analysis Suite 5 (MAS5) software (Affymetrix). Tab-delimited files were obtained containing data regarding signal intensity (Signal) and categorical expression level measurement (Absolute Call).
The raw data obtained from the GeneChip by MAS5 were imported to GeneSpring 7.2 for analysis. Data were normalized per chip and per gene to the respective median. Genes were annotated according to LocusLink nomenclature (http://www.ncbi.nlm.nih.gov/LocusLink/).
Filtering of the data was performed according to following criteria for each gene:
Fold-change refers to the ratio of genotoxic versus cytotoxic. Since these studies seek robust predictor genes the limit ratios (1.4 and 0.7) were selected in order to excluded genes that show consistent but only small differences. […]
PLS-DA was applied iteratively to the gene expression data with cyto- and genotcoxicity as class variables. […] The final model was validated by response permutation; i.e. the class membership of each sample was randomly attributed, evaluated by the model and contrasted to the solution of the model with the original class membership. […]
In series [4] the test system is TK6 human lymphoblastoid cells. The settings on record: dilution series up to or around the EC50 values (FIG. 1). Here is the method: FIG. 1. Graphical representation of the percentage of cells in G2 phase as a function of dilution of the indicated genotoxic and nongenotoxic compounds (points 1-9), with control samples at points 10-12. An original color image has been converted to grayscale by computer.
as §2
The six model compounds identified in Table 1 were applied in a dilution series to TK6 cells. […]

The mark [5] stands for this setting: TK6 cells, equicytotoxic concentrations, cytotoxic samples above or at 0, genotoxic samples below 0.

Where two headings read alike, the source gives them in different places.

Turning to `CO[C@@]12[C@H](COC(N)=O)C3=C(C(=O)C(C)=C(N)C3=O)N1C[C@@H]1N[C@@H]12` [Mitomycin C], the “Cell Density (±S.D.)” value in series [1] worked out at 53 ± 3%. Also, the “Alamar Blue (±S.D.)” value in series [2] came out at 48 ± 1%.
Take `N.N.[Cl][Pt][Cl]` [cis-Platinum, cis-diammineplatinum(II) dichloride]: in series [1], the EC50 was determined as 1.3 µM and the “Cell Density (±S.D.)” value was 53 ± 4%. For the same molecule, the “Alamar Blue (±S.D.)” value in series [2] stood at 46 ± 5%.
Turning to `N.N.[Cl][Pt][Cl]` [trans-Platinum, trans-diammineplatinum(II) dichloride], the EC50 in series [1] (listed as tPt) turned out to be 33 µM. In addition, in series [1], the “Cell Density (±S.D.)” value is listed as 58 ± 7%. Besides, the “Alamar Blue (±S.D.)” value in series [2] is on record as 36 ± 13%.
For the molecule `COS(C)(=O)=O` [Methyl methanesulfonate], the “Cell Density (±S.D.)” value in series [1] worked out at 44 ± 2%. Also, in series [2], the “Alamar Blue (±S.D.)” value was 43 ± 8%. For the same molecule, the “scores of first component t[1] of PLS-DA with all 215 genes (FIG. 4)” value in series [3] (human) was “below t[1]=0”.
In the case of `CO[C@H]1/C=C/O[C@@]2(C)Oc3c(C)c(O)c4c(O)c(c(/C=N/N5CCN(C)CC5)c(O)c4c3C2=O)NC(=O)/C(C)=C\C=C\[C@H](C)[C@H](O)[C@@H](C)[C@@H](O)[C@@H](C)[C@H](OC(C)=O)[C@@H]1C` [Rifampicin], the “Cell Density (±S.D.)” value in series [1] was determined as 52 ± 9%. Also, the “Alamar Blue (±S.D.)” value in series [2] stood at 61 ± 8%. Further, the “shifts in cell cycle parameters / G2 phase block” value in series [4] is listed as “no significant shifts in cell cycle parameters”. Moreover, the “scores of first component t[1] of PLS-DA with all 215 genes (FIG. 4)” value in series [3] (setting [5]) was “above or at t[1]=0”.
For `[Cl-].[Na+]` [NaCl], in that order: 30 ± 4%, 65 ± 5%, “no significant shifts in cell cycle parameters” and “above or at t[1]=0”.
